Like-named read-outs stand apart in the source and are kept apart here.
Experiments:
ARN127(65)CFP/YFP [1] = test: FRET-based assay of polyglutamine (AR) aggregation, limited chemical screen and dose-response; format: cell-based, human
Method: For experiments in the fluorescence plate reader, high-throughput screening, and detergent fractionation, HEK293 cells in 6-well plates were transfected with a total of 2 μg of DNA using 10 μL Plus™ and 12 μL Lipofectamine™ according to manufacturer's protocol. To control for autofluorescence and light scattering by mammalian cells, a control group was transfected with 2 μg pcDNA3. To control for bleedthrough and crossover excitation, CFP and YFP controls were transfected with 1 μg pECFP-C1 (Clontech) and 1 μg pcDNA3 (Invitrogen) or 1 μg pEYFP-C1 (Clontech) and 1 μg pcDNA3 respectively. After 5 hours, cells were counted and plated into optically clear 96-well plates (Costar™ 3603) at a density of 60,000 cells/well. […] For assays of rho-GTPase mutants, 1 μg of each was used in conjunction with 1 μg of the polyglutamine expression plasmids. Transfections were performed in triplicate, and each experiment was repeated 6 times. C17-2 neural precursor cells were plated in 12-well plates and transfected using 4 μg of DNA and 4 μl of Lipofectamine 2000™. […] In C17-2 cells polyglutamine protein was visualized by direct fluorescence; neuron-specific tubulin was visualized by immunostaining with mouse monoclonal antibody Neuro TUJ1 (Covance) at 1:1000. […]

htt(72)CFP/YFP = target: T1, htt(72)CFP/YFP (Homo sapiens, UniProt P42858, INS38QQQQQQQQQQQQQQQQQQQQQQQQQQQQQQQQQQQQQQQQQQQQQQQQQQQ); test: FRET based assay of htt aggregation; format: cell-based
T1 construct: htt exon 1 fragment derived from plasmid qp72; expressed in transfected cells; host or cells: HEK293
T1 sequence (P42858 with tags, fused parts or gaps, stated change not applied): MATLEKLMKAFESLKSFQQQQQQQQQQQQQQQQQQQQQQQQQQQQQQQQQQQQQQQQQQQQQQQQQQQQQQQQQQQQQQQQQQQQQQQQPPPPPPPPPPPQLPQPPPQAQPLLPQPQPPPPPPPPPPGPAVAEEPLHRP
Method: Aggregation of htt was monitored using the FPR FRET based HTS described herein for assaying aggregation of AR, using plasmids with htt exon 1-CFP and -YFP fusions containing 72 repeats (htt(72)CFP/YFP). HEK293 cells were transfected with htt(72)CFP/YFP as above, and cells were plated into a 96-well dish in the presence or absence of various concentrations of test compounds. After 24 hours, cells were fixed in 4% paraformaldehyde, and FRET signal was determined from the cell monolayers by reading on the FPR.

[2] = test system: Transgenic flies harboring htt exon 1 (Q93); test: Drosophila model of htt exon 1 neurodegeneration (rhabdomeres per ommatidium); format: in vivo; conditions: 25 μM in food, seven days post-eclosion, p<0.0003 by ANOVA
Method: Transgenic flies were used, harboring a human huntingtin exon 1 fragment with 93 glutamines (htt exon 1 (Q93)) that is expressed in all fly neurons under the control of the elav:Gal4 driver.
Flies were treated by maintaining adults on food containing candidate compound (e.g., 25 μM Y-27632) or no drug supplement. The number of rhabdomeres in treated vs. untreated flies were analyzed seven days post-eclosion by the pseudopupil technique as described (Steffan et al., (2001). Nature 413, 739-743). Approximately 50-60 ommatidia were analyzed for rhabdomere content on each of 10-12 flies from each treatment group, and the average number of rhabdomeres per ommatidium in each individual was determined. Percent rhabdomere loss was calculated as 100×((7−average number remaining)/7) before and after treatment.
The therapeutic effect of Y-27632 in a Drosophila model of polyglutamine neurodegenerative disease was tested. Following eclosion, adult flies expressing the transgene were grown for seven days in the presence or absence of 25 μM Y-27632 in their food and rhabdomeres were counted at seven days. […] Thus, in addition to reducing polyglutamine aggregation in mammalian cells, Y-27632 is neuroprotective in this Drosophila model of polyglutamine protein toxicity.

full-length AR = test: Western blot of full-length AR levels in stable C17.2 neural cell lines; format: cell-based; conditions: 50 μM, with or without 100 nM DHT, FIG. 6A
Excerpt: (§1) Immortalized cell lines were created expressing full-length AR that differentiated in vitro into cells that resemble CNS neurons. C17.2 cells were used, developed by Evan Snyder, M. D., Ph.D. which are a transformed mouse neural precursor cell line that retain the ability to engraft and differentiate into CNS neurons and glia when implanted into fetal mouse brain (Snyder et al. 1192 Cell 68:33-51). In their undifferentiated form these cells may be propagated and easily transfected in vitro. However, upon serum starvation, addition of growth factor (NGF 100 ng/ml), and mitomycin (100 ng/ml) they differentiate into cells that have many features of CNS neurons, including axons, dendrites, and expression of neuron-specific markers.
(§2) C17.2 cell lines were created that stably expressed full-length HA-tagged forms of AR (25, 66, 103, or 122 glutamines). These AR(n)-C17.2 cell lines recapitulate several important aspects of SBMA, including proteolytic cleavage, and nuclear inclusion formation (data not shown). […] After six days of differentiation, AR(25)-C17.2 cells cultured with or without DHT readily formed neuron-like cells, expressing neural markers and extending long axonal processes. […]

AR(122)-C17.2 cells = test: Cell model of full length AR cytopathology (surviving neurons after 6 days of differentiation); format: cell-based, mouse; conditions: 50 μM
Excerpt: as §1, §2

[3] = Pharmacokinetics in serum and brain of mice (LC-MS); format: in vivo, mouse; conditions: for half-life: mouse
Method: The pharmacokinetics of candidate compounds were assayed in serum and brain of mice. Wild-type C57B6 mice are injected with a single IP dose of a candidate compound, e.g., Y-27632 at 10 mg/kg. Pairs of animals are sacrificed at various time points and serum and brain samples were obtained for LC-MS analysis of drug levels. Plots of serum concentration vs. time and brain concentration vs. time are used to analyze, e.g., penetration of the blood/brain barrier, drug kinetics, and t1/2.
Wild-type C57B6 mice were treated with a single 10 mg/kg dose of Y-27632 by IP injection. Pairs of animals were sacrificed at various time points and serum and brain samples were obtained for LC-MS analysis of Y-27632 levels. […] The initial rapid fall in serum concentration is likely due to tissue re-distribution. […] Values represent the average from two mice; error bars represent the range.

ARN127(65)CFP/YFP [4] = test: Secondary screen using the AR FRET assay; format: cell-based, human; conditions: secondary screen, AR FRET assay, Table 3
Method: Selected candidate compounds and/or libraries of compounds were screened as follows. Daughter plates were created in duplicate from the 384-well microtiter plates that contained the compounds at a concentration of 80 μg/ml. […] To screen a library, HEK293 cells stably expressing RFP were plated in 10 cm plates to obtain ˜80% confluency on the day of transfection. Each plate was transfected with 2 μg of ARN127(65)CFP/YFP each, and 0.7 μg p6RGRΔ using 50 μL Plus Reagent™ and 76 μL Lipofectamine™ according to manufacturer's protocol (Invitrogen). After 3 hours, complete medium was added and the plates were incubated further for 3 hours. […] The cells were then cultured for ˜48 hours to allow aggregate formation. After fixing the cells FRET signal was measured using a SAFIRE Fluorescence Plate Reader (Tecan, Inc.) according to methods described above. Several internal controls were used to standardize each experiment. Mock transfected cells were used to control for background autofluorescence and light scattering by mammalian cells. To control for CFP bleedthrough and crossover excitation of YFP, additional wells contained cells expressing ARN127(25)CFP or ARN127(25)YFP alone. RFP was measured to control for non-specific effects on steady-state protein levels. ARN127(25)CFP/YFP expression served as a reference point for background FRET levels without aggregation (a theoretical maximum effect on aggregation inhibition). FRET measurements for each experiment were thus scaled between 100% (cells with no drug treatment) and 0% (FRET levels from unexpanded protein).
Selected candidate compounds from the primary screen of all three libraries were assayed again in a secondary screen using the AR FRET assay.
Finally, the role of F-actin in preventing polyglutamine aggregation was investigated by treating cells with two agents that prevent actin depolymerization: phalloidin and jasplakinolide.

[5] = C57B6 mice, single 10 mg/kg dose IP

| EC50 (ARN127(65)CFP/YFP [1]; dose-response analysis, FRET, FIG. 3B, read-out: EC50 for the effect on polyglutamine aggregation) [µM] | aggregation of htt exon 1-CFP and -YFP fusions containing 72 repeats (htt(72)CFP/YFP; FIG. 3A) | serum:brain ratio ([3]; C57B6, mouse, in vivo, ip, 10 mg/kg) | bioavailability [3, 5] | brain concentration, peak [3, 5] | serum concentration, spike [3, 5] | half-life ([3]; serum and brain, C57B6 mice, single 10 mg/kg dose IP, read-out: t1/2 of clearance from serum and brain (first-order kinetics)) [h] | half-life ([3]; serum, C57B6 mice, single 10 mg/kg dose IP, read-out: t1/2 of clearance from serum) [h] | Max % Inh. in Htt (htt(72)CFP/YFP; HEK293, htt(72)CFP/YFP, 24 hours) [%] | SMILES | decrease of FRET (polyglutamine protein aggregation) (ARN127(65)CFP/YFP [1]; HEK293, ARN127(65)CFP/YFP and GRΔ, 100 nM dex, 48 hours) [%] | rhabdomere loss prevented [2] [%] | AR steady-state levels (full-length AR) | increase in number of surviving AR(122)-C17.2 neurons (AR(122)-C17.2 cells) [%] | effect on AR(25)-C17.2 cells (AR(122)-C17.2 cells; data not shown) | Max % Inhibition (ARN127(65)CFP/YFP [4]) [%] |
| --- | --- | --- | --- | --- | --- | --- | --- | --- | --- | --- | --- | --- | --- | --- | --- |
| ~5 | inhibited aggregation | approximately 6:1 | excellent bioavailability | ≈ 500 nM | approximately 3.5 μM | ~1 | ~1 | – | C[C@@H](N)C1CCC(C(=O)Nc2ccncc2)CC1 (stereo partly drawn) [Compound Y-27632] | 40 | 29 | reduced the AR steady-state levels | 100 | without affecting AR(25)-C17.2 cells | – |
| – | – | – | – | – | – | – | – | 28 | Oc1cc(O)cc(/C=C/c2ccc(O)c(O)c2)c1 [Piceatannol, 3,3′4,5′-Tetrahydroxy-Trans-stilbene] | – | – | – | – | – | 23 |

Source: patent US7803559B1, “Protein aggregation regulators” (The Regents of the University of CA, priority 2003, dated 2010)
